# Measurements reported in patent US6531510B1, “N,N′-bis(2-hydroxybenzyl)ethylenediamine-N,N′-diacetic acid in iron chelating therapy” (University of Florida Research Foundation, Inc., priority 1998, dated 2003).
# Structures can show the parent of a compound that is named as a salt.
# Tests used:
# [1] = system: iron-loaded Cebus apella monkeys; assay: Chelator-induced iron excretion (iron-balance study) in iron-loaded Cebus apella monkeys; format: in vivo; conditions: s.c., 150 μmoles/Kg; for efficiency of iron chelation: mean
# Protocol: After intramuscular anesthesia with ketamine, an intravenous infusion was started in a leg vein. […] Two to three infusions, separated by between 10 and 14 days, were necessary to provide about 500 mg iron per Kg body weight. […] At least twenty half-lives, sixty days, passed before using any of the animals in experiments evaluating iron-chelating agents.
# Seven days before the administration of the drug, the animals were placed in metabolic cages and started on a low-iron liquid diet. The monkeys were maintained on the low-iron liquid diet for the duration of the experiment. They were given food according to their body weight, and intake was very carefully monitored.
# Three days prior to drug administration, day −2 to day 0, baseline iron intake and output values were measured. This same measurement was made for day +1 to day +3. The total amount of iron intake was compared with the total amount of iron excreted.
# Fecal and urine samples were collected at 24 hour intervals. The collections began four days prior to the administration of the test drug and continued for an additional five days after the drug was given. Fecal samples were assayed for the presence of occult blood, weighed, and mixed with distilled deionized water prior to autoclaving for 30 minutes. The mixture was then freeze-dried, and a known portion of the powder was mixed with low-iron nitric acid and refluxed for 24 hours. Once any particulate matter in the digested samples was removed by centrifugation, iron concentrations were determined by flame atomic absorption. Monkey urine samples were acidified and reconstituted to initial volume after sterilization, if necessary.
# In the primates, DFOM was administered s.c. in sterile water for injection at a dose of 150 μmoles/Kg, while HBED was first dissolved in a phosphate buffer, ph 7.4, thus forming the mono-sodium salt and given s.c. in 40% wt./vol. Cremophor RH40 at a dose of 75 or 150 μmoles/Kg. In addition, in order to more closely mimic clinical applications in patients, mono-sodium HBED was also given to the monkeys s.c. at a dose of 150 μmoles/Kg in a phosphate buffer; no Cremophor vehicle was used.
# The efficiency of each chelator was calculated on the basis of a 1:1 ligand-iron complex.
# Groups of monkeys (n=6 in each group) were given s.c. injections of either DFOM or MS HBED. […] In our initial experiments, HBED monohydrochloride monohydrate was dissolved in a phosphate buffer at p.7.2 to form a solution of the MS HBED and administered in 40% wt./vol. […] HBED monohydrochloride monohydrate-Cremophor was administered by s.c. injection at doses of 75 or 150 μmoles/Kg.
# [2] = system: Cebus apella monkeys with iron overload; conditions: cited from earlier work
# [3] = typical, background statement; cited from earlier work
# [4] = Water solubility; format: physicochemical
# [5] = system: human patients; conditions: oral; cited from earlier work
structure (smiles),measurement,setting,value
"CC(=O)N(O)CCCCCNC(=O)CCC(=O)N(O)CCCCCNC(=O)CCC(=O)N(O)CCCCCN [DFOM, desferrioxamine B mesylate]",share of chelator-induced iron excretion in the stool,[1]; aqueous solution,about 65%
same,share of chelator-induced iron excretion in the urine,[1]; aqueous solution,about 35%
same,chelator-induced iron excretion,"[1]; aqueous solution, n=6",435±115 μg Fe/Kg body weight
same,efficiency of iron chelation,[1]; aqueous solution,5.1±1.3%
same,activity in the Cebus apella monkey screen compared with oral HBED or its dimethyl ester,[2]; DFOM subcutaneous vs HBED or dimethyl ester oral,significantly higher activity
same,share of the compound administered that binds iron,[3],≤ 5%
Cl.O.O=C(O)CN(CCN(CC(=O)O)Cc1ccccc1O)Cc1ccccc1O [HBED monohydrochloride monohydrate],water solubility,[4],low water solubility
"O=C(O)CN(CCN(CC(=O)O)Cc1ccccc1O)Cc1ccccc1O [HBED, N,N′-bis(2-hydroxybenzyl)ethylenediamine-N,N′-diacetic acid]",chelator-induced iron excretion,"[2]; oral, phosphate buffer, previously published study",50±44 μg Fe/Kg body weight
same,share of chelator-induced iron excretion in the stool,"[2]; oral, phosphate buffer",about 56%
same,share of chelator-induced iron excretion in the urine,"[2]; oral, phosphate buffer",about 44%
same,efficiency of iron chelation,"[2]; oral, phosphate buffer, mean",0.5±0.5%
same,level of iron excretion for treatment of iron overload,[5],ineffective
"O=C([O-])CN(CCN(CC(=O)O)Cc1ccccc1O)Cc1ccccc1O.[Na+] [MS HBED, HBED, monosodium salt]","mean net iron excretion, phosphate buffer vs Cremophor preparation",[1]; P>0.2,no significant difference
same,share of chelator-induced iron excretion in the stool,[1]; phosphate buffer,about 92%
same,share of chelator-induced iron excretion in the urine,[1]; phosphate buffer,about 8%
same,iron excretion relative to DFOM,"[1]; phosphate buffer vs DFOM s.c. 150 μmoles/Kg, P<0.001",about twice
same,chelator-induced iron excretion,"[1]; phosphate buffer, no Cremophor",899±193 μg Fe/Kg body weight
same,efficiency of iron chelation,[1]; phosphate buffer,10.7±2.3%
